Test results taken from patent publication US20120219638A1, “Method and Compositions for Treating Plant Infections” (priority 2006, published 2012).

Key:
[1] = tested on: Erwinia amylovora (fire blight); assay: Fire blight field trial on apple trees, one spray at full bloom: disease incidence and severity; format: in vivo; conditions: for Disease incidence (# of trees): standard, concentration not given, one spray at full bloom
Protocol: Experimental design: Three cultivars, 8 treatments and four blocks. In each block there is one tree per cultivar per treatment (four trees per cultivar per treatment). Treatments are randomized within each cultivar in each block.
When the forecast predicts favorable conditions, treatments were applied within 24-48 hours. Note: Oxysilver compound was a mixture of oxysilver bisulphate and oxysilver nitrate, with oxysilver bisulphate as the dominant compound.
(§1) Three apple varieties (Gala, Fuji, and Golden) were treated with one spray of oxysilver at full-bloom. There were a total of eight treatments: 1. Untreated control, 2. Streptomycin standard, 3. Oxytetracycline standard, 4. Oxysilver compound 0.005% (w/v), 5. Oxysilver compound 0.05%, 6. Oxysilver compound 0.1%, 7. Oxysilver compound 0.5%, and 8. Oxysilver compound 1.0%. The trees were evaluated once a week for disease severity and phytotoxicity. Apples were harvested. Each treatment and variety combination was repeated four times. Disease incidence through blossom infections was monitored. Infections four weeks or so after bloom are not due to blossom infections and are not typically treated by growers.
(§2) Disease incidence was recorded as the number of trees showing infections per treatment. Disease severity was rated as follows: 0—No disease, 1—One—two infected shoots, 2—Two-four infected shoots, 3—Four or more infected shoots or one systemic canker, 4—Two or more systemic cankers. […] After harvest, apples from untreated trees and trees treated with 0.005% and 1% oxysilver compound were sent to an independent lab for testing of silver accumulation in the fruit. For comparison, oxysilver compound was sprayed directly on some apples.
(§3) Statistical analysis was done using SAS 9.3 Proc glimmix and Proc GLM.

[2] = tested on: apple varieties (Gala, Fuji, and Golden); assay: Phytotoxicity of leaf and fruit on treated apple trees; format: in vivo; conditions: standard, concentration not given; for Phytotoxicity (leaf) (average): rating 0 (none) to 4 (50-100% of leaf area necrotic); for Phytotoxicity (fruit) (average): rating 0 (none) to 4 (severe deformation)
Protocol: as §1, §2, §3

Compound	Disease incidence (# of trees) [1]	Phytotoxicity (leaf) (average) [2] [c]	Phytotoxicity (fruit) (average) [2] [c]	Disease severity compared with untreated control ([1]; all oxysilver treatments and streptomycin standard, p=0.05, systemic cankers in untreated control)
CN(C)[C@@H]1C(O)=C(C(N)=O)C(=O)[C@@]2(O)C(O)=C3C(=O)c4c(O)cccc4[C@@](C)(O)[C@H]3[C@H](O)[C@@H]12 [Oxytetracycline, oxytetracycline]	1 ab # of trees	0	0	–
[H]/N=C(/N)N[C@H]1[C@H](O)[C@@H](O)[C@H](O[C@@H]2O[C@@H](C)[C@](O)(C=O)[C@H]2O[C@@H]2O[C@@H](CO)[C@H](O)[C@@H](O)[C@@H]2NC)[C@@H](N/C(N)=N\[H])[C@@H]1O [Streptomycin, streptomycin]	1 ab # of trees	0	0	significantly higher in the untreated control
